Measured values: US11690387B2, “Methods and related compositions for manufacturing food and feed” (priority 2017, dated 2023)

How the values were obtained:
fungi = details: cited from earlier work
Drosophila melanogaster [1] = assay: Development rate assay: time to adult emergence on diet seeded with Corynebacterium glutamicum (Example 8); format: in vivo; details: diet seeded with 10^9 CFUs of bacteria vs axenic/sterile diet; adults counted every 12 hours
Method: The media used to rear flies is cornmeal, molasses and yeast medium (11 g/l yeast, 54 g/l yellow cornmeal, 5 g/l agar, 66 ml/l molasses, and 4.8 ml/l propionic acid). All the components of the diet except propionic acid are heated together to 80° C. in deionized water with constant mixing for 30 minutes and let to cool to 60° C. Propionic acid is then mixed in and 50 ml of the diet is aliquoted into individual bottles and allowed to cool down and solidify. The flies are raised at 26° C., 16:8 hour light:dark cycle, at around 60% humidity.
On day one, 100 ul of a Corynebacterium glutamicum suspension in nutrient broth consisting of 10^9 colony forming units (CFUs) were added to five replicates of fly food. As controls, nutrient broth without the bacteria was added to five more bottles of fly food. Fertilized embryos collected from fruit flies were treated with 2% hypochlorite solution for five minutes and then washed with sterile water to remove any extracellular microbes from the embryos. 10 ul of the embryo suspension in water (one:three embryo:water suspension) was added to all the bacteria seeded and control fly food bottles. […] The time to adult emergence and the rate of emergence was measured in every replicate. From the time the first adult emerges from the pupa, the number of adult flies emerging was counted every 12 hours and rate of emergence was be computed.

Drosophila melanogaster [2] = assay: Larval mass assay: larval area on defined diet, axenic or mono-associated with one bacterium (Example 8); format: in vivo; details: after 13 days, 10-15 larvae per replicate, FIG. 3
Description: For the experimental setup to measure the larval growth rate, defined diet was used (Piper et al., 2014, Nature Methods). Defined diet eliminates the effects of batch to batch variation in the ingredients used for the cornmeal based diet. In addition, the defined diet allows for the exclusion of individual components to test their effects on fly development.
To test whether the presence of bacteria producing amino acids can increase the body mass of developing larvae when raised on defined diet, we produced larvae that are axenic, and mono-associated with a single strain of bacterium. For these assays, three different bacteria were used, Corynebacterium glutamicum—a strain that produces glutamate, Corynebacterium glutamicum—a strain that produces methionine, and E. coli.
First, axenic embryos were generated. Fertilized embryos were collected from fruit flies over a 6 hour period on grape juice agar plates with yeast. To eliminate any bacterial contamination, the embryos were treated with 2% hypochlorite solution for five minutes and then washed thrice with sterile water. One volume of embryos was then suspended in 3 volumes of water.
The defined diet was aliquoted into vials and nine replicates were used for every condition being tested. […]
After 13 days, 10-15 randomly chosen larvae from each replicate were sampled, and their areas were measured, as a proxy to their biomass and weight. […]

target bacterial strains = details: against its target bacterial strains; cited from earlier work

For alirin B1, which antifungal activities (fungi) is on record?
The antifungal activities was “have been shown to have antifungal activities”.

Which antifungal activities (fungi) does the source give for botrycidin AJ1316 here?
The antifungal activities was “have been shown to have antifungal activities”.

For “Corynebacterium glutamicum [C. glutamicum Glu]”, which “time to reach adulthood from embryos” value (Drosophila melanogaster [1]) is on record?
Its value is “reach adulthood faster than their bacteria free counterparts”.

For Corynebacterium glutamicum [C. glu-Met], which “larval body size (area of the larvae, proxy to biomass and weight)” value (Drosophila melanogaster [2]) is on record?
The value was “largest body size on average”.

For nisin, which “concentration showing antimicrobial activity” value (target bacterial strains) is on record?
The value was “single-digit nanomolar concentration”.
